From PubChem BioAssay AID1963858 (Molecular Pharmacology Branch, DTP, NCI, 2024)

Tested on: HOP-62 multicell spheroids with HUVEC/MSC, viability
Experiment: Anticancer human tumor HOP-62 cell line growth inhibition [KRAS2];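 note: viability read after a week of compound exposure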;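 for viability, T/C: 100% = DMSO vehicle-treated spheroids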
Details: for viability, T/C: stronger effect = lower value
How it was run: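 Combination screen of spheroid viability in tumor-cell co-cultures with endothelial (HUVEC) and mesenchymal stem cell stroma. Each agent was tested in half-log dilutions, topping at clinical Cmax or at 10 microM without a known Cmax.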

[1] = curve of first compound, second compound 0.1 µM
[2] = curve of first compound, second compound 0.316 µM
[3] = curve of first compound, second compound 1 µM
[4] = curve of first compound, second compound 3.16 µM
[5] = curve of first compound, second compound 10 µM
[6] = second compound 0.1 µM, first compound 0.0316 µM
[7] = second compound 0.1 µM, first compound 0.1 µM
[8] = second compound 0.1 µM, first compound 0.316 µM
[9] = second compound 0.1 µM, first compound 1 µM
[10] = second compound 0.1 µM, first compound 3.16 µM
[11] = second compound 0.1 µM, first compound 10 µM
[12] = second compound 0.316 µM, first compound 0.0316 µM
[13] = second compound 0.316 µM, first compound 0.1 µM
[14] = second compound 0.316 µM, first compound 0.316 µM
[15] = second compound 0.316 µM, first compound 1 µM
[16] = second compound 0.316 µM, first compound 3.16 µM
[17] = second compound 0.316 µM, first compound 10 µM
[18] = second compound 1 µM, first compound 0.0316 µM
[19] = second compound 1 µM, first compound 0.1 µM
[20] = second compound 1 µM, first compound 0.316 µM
[21] = second compound 1 µM, first compound 1 µM
[22] = second compound 1 µM, first compound 3.16 µM
[23] = second compound 1 µM, first compound 10 µM
[24] = second compound 3.16 µM, first compound 0.0316 µM
[25] = second compound 3.16 µM, first compound 0.1 µM
[26] = second compound 3.16 µM, first compound 0.316 µM
[27] = second compound 3.16 µM, first compound 1 µM
[28] = second compound 3.16 µM, first compound 3.16 µM
[29] = second compound 3.16 µM, first compound 10 µM
[30] = second compound 10 µM, first compound 0.0316 µM
[31] = second compound 10 µM, first compound 0.1 µM
[32] = second compound 10 µM, first compound 0.316 µM
[33] = second compound 10 µM, first compound 1 µM
[34] = second compound 10 µM, first compound 3.16 µM
[35] = second compound 10 µM, first compound 10 µM
[36] = second compound 0.1 µM, first compound 0.01 µM
[37] = second compound 0.316 µM, first compound 0.01 µM
[38] = second compound 1 µM, first compound 0.01 µM
[39] = second compound 3.16 µM, first compound 0.01 µM
[40] = second compound 10 µM, first compound 0.01 µM

SMILES	IC50 [1] [nM]	IC50 [2] [nM]	IC50 [3] [nM]	IC50 [4] [nM]	IC50 [5] [nM]	viability, T/C [6] [%]	viability, T/C [7] [%]	viability, T/C [8] [%]	viability, T/C [9] [%]	viability, T/C [10] [%]	viability, T/C [12] [%]	viability, T/C [13] [%]	viability, T/C [14] [%]	viability, T/C [15] [%]	viability, T/C [18] [%]	viability, T/C [19] [%]	viability, T/C [24] [%]	viability, T/C [25] [%]	viability, T/C [30] [%]	viability, T/C [31] [%]	also measured
O=C(c1cc(Cc2n[nH]c(=O)c3ccccc23)ccc1F)N1CCN(C(=O)C2CC2)CC1 + C=CC(=O)N1CCN(c2nc(=O)n(-c3c(C)ccnc3C(C)C)c3nc(-c4c(O)cccc4F)c(F)cc23)C(C)C1	39.7	271	708	249	< 31.6	50.3	47.2	37.5	35.6	27.7	64	61.2	45.5	40.4	59.3	54.7	58.9	50.5	52	46.1	viability, T/C [11]: 27.4%; viability, T/C [16]: 37.6%; viability, T/C [17]: 29.3%; viability, T/C [20]: 53.2%; viability, T/C [21]: 49.8%; viability, T/C [22]: 40.8%; viability, T/C [23]: 31.6%; viability, T/C [26]: 48.3%; viability, T/C [27]: 47.8%; viability, T/C [28]: 42.1%; viability, T/C [29]: 37.4%; viability, T/C [32]: 48.8%; viability, T/C [33]: 46.7%; viability, T/C [34]: 43.2%; viability, T/C [35]: 36.8%
CC(C)n1nc(-c2ccc3oc(N)nc3c2)c2c(N)ncnc21 + C=CC(=O)N1CCN(c2nc(=O)n(-c3c(C)ccnc3C(C)C)c3nc(-c4c(O)cccc4F)c(F)cc23)C(C)C1	< 0.316	0.36	0.592	0.671	< 0.316	10.2	8.15				11.4	8.53			11	8.43	12.4	8.73	11.8	9.42	viability, T/C (second compound 0.1 µM, first compound 0.000316 µM): 42.3%; viability, T/C (second compound 0.1 µM, first compound 0.001 µM): 33.4%; viability, T/C (second compound 0.1 µM, first compound 0.00316 µM): 19.2%; viability, T/C [36]: 15.4%; viability, T/C (second compound 0.316 µM, first compound 0.000316 µM): 51.1%; viability, T/C (second compound 0.316 µM, first compound 0.001 µM): 41%; viability, T/C (second compound 0.316 µM, first compound 0.00316 µM): 25.3%; viability, T/C [37]: 14.2%; viability, T/C (second compound 1 µM, first compound 0.000316 µM): 62.8%; viability, T/C (second compound 1 µM, first compound 0.001 µM): 38.9%; viability, T/C (second compound 1 µM, first compound 0.00316 µM): 25.5%; viability, T/C [38]: 15.3%; viability, T/C (second compound 3.16 µM, first compound 0.000316 µM): 60.2%; viability, T/C (second compound 3.16 µM, first compound 0.001 µM): 43.8%; viability, T/C (second compound 3.16 µM, first compound 0.00316 µM): 31.9%; viability, T/C [39]: 18.6%; viability, T/C (second compound 10 µM, first compound 0.000316 µM): 36.9%; viability, T/C (second compound 10 µM, first compound 0.001 µM): 28.8%; viability, T/C (second compound 10 µM, first compound 0.00316 µM): 25%; viability, T/C [40]: 16.2%
CC(=O)OC12COC1CC(O)C1(C)C(=O)C(O)C3=C(C)C(OC(=O)C(O)C(NC(=O)OC(C)(C)C)c4ccccc4)CC(O)(C(OC(=O)c4ccccc4)C21)C3(C)C (stereo unspecified) + C=CC(=O)N1CCN(c2nc(=O)n(-c3c(C)ccnc3C(C)C)c3nc(-c4c(O)cccc4F)c(F)cc23)C(C)C1	< 10	< 10	< 10	< 10	< 10	27.3	26.8	25.1	25.2	28.5	23.9	24.7	27.3	24.9	23	28	25.4	27	26.9	27.9	viability, T/C [36]: 24.3%; viability, T/C [37]: 29.5%; viability, T/C [16]: 31.1%; viability, T/C [38]: 29.4%; viability, T/C [20]: 27.8%; viability, T/C [21]: 30.2%; viability, T/C [22]: 30%; viability, T/C [39]: 32.8%; viability, T/C [26]: 35.1%; viability, T/C [27]: 32.5%; viability, T/C [28]: 33.1%; viability, T/C [40]: 28.1%; viability, T/C [32]: 29.9%; viability, T/C [33]: 30.8%; viability, T/C [34]: 34.6%
CC(=O)OC12COC1CC(O)C1(C)C(=O)C(O)C3=C(C)C(OC(=O)C(O)C(NC(=O)OC(C)(C)C)c4ccccc4)CC(O)(C(OC(=O)c4ccccc4)C21)C3(C)C (stereo unspecified) + CC1OCC2(CCN(c3cnc(Sc4ccnc(N)c4Cl)c(N)n3)CC2)C1N	< 10	< 10	< 10	< 10	< 10	34.9	35.6	37.6	38.2	40.1	33	31.2	29.8	33.1	33.8	32.7	22.3	39.3	18.8	35.4	viability, T/C [36]: 35.9%; viability, T/C [37]: 31.2%; viability, T/C [16]: 36.4%; viability, T/C [38]: 37.5%; viability, T/C [20]: 34.5%; viability, T/C [21]: 34.8%; viability, T/C [22]: 45%; viability, T/C [39]: 25.5%; viability, T/C [26]: 25.5%; viability, T/C [27]: 25.6%; viability, T/C [28]: 26.9%; viability, T/C [40]: 23%; viability, T/C [32]: 23.5%; viability, T/C [33]: 25.7%; viability, T/C [34]: 29.4%
CCNC(=O)CC1N=C(c2ccc(Cl)cc2)c2cc(OC)ccc2-n2c(C)nnc21 (stereo unspecified) + CNCc1ccccc1-c1csc(C(C)Nc2nc(C)nc3cc(OC)c(OC)cc23)c1	438	245	136	< 31.6	< 31.6	103	74.4	52.3	43.1	37.3	92.3	72	44.7	30.9	86	54.3	0.15	0.21	0.1	0.09	viability, T/C [11]: 35.1%; viability, T/C [16]: 33.6%; viability, T/C [17]: 32.6%; viability, T/C [20]: 38.2%; viability, T/C [21]: 29.7%; viability, T/C [22]: 28.1%; viability, T/C [23]: 28.6%; viability, T/C [26]: 0.07%; viability, T/C [27]: 0.06%; viability, T/C [28]: 0.06%; viability, T/C [29]: 0.13%; viability, T/C [32]: 0.1%; viability, T/C [33]: 0.09%; viability, T/C [34]: 0.23%; viability, T/C [35]: 0.17%
COc1cc(Nc2ncc3c(n2)-c2ccc(Cl)cc2C(c2c(F)cccc2OC)=NC3)ccc1C(=O)O																					viability, T/C (compound 0.316 µM): 51% [middle of 5 runs]; viability, T/C (compound 1 µM): 42.8% [middle of 5 runs]; viability, T/C (compound 3.16 µM): 33.8% [middle of 5 runs]; viability, T/C (compound 10 µM): 20.9% [middle of 5 runs]
Cn1nccc1Nc1nccc(-c2cc3c(s2)C(C)(C)N(CCN2CCOCC2)C3=O)n1																					viability, T/C (compound 0.0316 µM): 98.2% [middle of 5 runs]; viability, T/C (compound 0.1 µM): 103% [middle of 5 runs]; viability, T/C (compound 0.316 µM): 99.5% [middle of 5 runs]; viability, T/C (compound 1 µM): 62.4% [middle of 5 runs]; viability, T/C (compound 3.16 µM): 32.8% [middle of 5 runs]; viability, T/C (compound 10 µM): 30.4% [middle of 5 runs]; IC50 (curve of compound): 1.65 µM [middle of 5 runs]
